# Experimental data as given in patent publication US20250332112A1, “IONIZABLE CATIONIC LIPIDS FOR LIPID NANOPARTICLES” (GENEVANT SCIENCES GMBH, priority 2022, published 2025).
# Legend:
# [1] = Particle characteristics of LNPs containing luciferase mRNA and novel ionizable lipids; format: physicochemical; conditions: Table 6; luciferase mRNA LNP 1.6:54.6:32.8:10.9
# Method in brief: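 LNPs made from PEG-lipid, ionizable lipid, cholesterol and phospholipid in ethanol, T-mixed with luciferase mRNA in 100 mM acetate pH 5. Products were dialysed, concentrated, and dialysed into 5 mM Tris, 10% sucrose, pH 8, then 0.2 μm filtered. mRNA was measured by RiboGreen, and size and polydispersity by dynamic light scattering on a Zetasizer.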
# [2] = system: luciferase activity in the liver; test: Luciferase activity in liver after intravenous luciferase mRNA LNP; format: in vivo; conditions: 0.5 mg/kg IV, 6 h post-IV administration, BALB/c mice (n = 4)
# [3] = system: human OTC expression in the liver; test: Dose response of human OTC mRNA LNP, OTC expression in liver (ELISA); format: in vivo; conditions: 24 h, male C57BL/6 mice (n = 4)
# Description: (§1) LNP formulations encapsulating ornithine transcarbamylase mRNA were injected intravenously at the specified dose levels to male C57BL/6 mice (6-8 weeks old).
# Liver homogenates were prepared with PBS, Halt protease inhibitor cocktail and FastPrep homogenization, standardized to 2 mg/mL protein with a BCA Protein Assay, and then analyzed by ELISA. Briefly, samples were diluted with PBS and plated on Nunc Maxisorp plates. A standard curve using human […] protein was prepared from the naïve animal controls (vehicle). After 2 h incubation the plates were washed, and the primary antibody was added. After 1 h incubation, the secondary antibody was added and incubated for another hour. After washing, TMB Substrate was added for color development and the reaction was stopped with 2 N sulfuric acid. The plate was read at 450/570 OD.
# At 24 h post-dose, the novel lipid formulations reported dose-dependent increases in human OTC expression in the liver (Table 15).
# [4] = Parent ionizable lipid remaining in liver at 6 h after luciferase mRNA LNP (LC-MS); format: in vivo; conditions: 6 h after IV 0.5 mg/kg Luciferase mRNA LNP
# [5] = Lipid clearance from liver over time after human OTC mRNA LNP (LC-MS); format: in vivo; conditions: IV 0.5 mg/kg human OTC mRNA LNP, male C57BL/6 mice (n = 4)
# Description: as §1
# (§2) Liver tissues were treated with PBS and homogenized with a FastPrep machine, 3 cycles of 5 m/s×15 s. Homogenates from the PBS-treated control animals was pooled and used for standard curve preparation. Samples were extracted into a deep well plate with 250 μL of an internal suitability standard. Plates were centrifuged for 15 min at 4° C. and 2000 rpm. Analysis was performed using an Agilent 6520 QTOF coupled to an Agilent 1290 UHPLC, using reverse-phase LC separation. Quantitation of the ionizable lipid was by MS/MS against a calibration curve spiked into appropriately matched blank matrix. Calibration used a similar class of synthetic lipid as internal standard.
# At various timepoints post-dose, lipid levels were assessed in the liver. Some novel ionizable lipids reported more rapid clearance rates compared to the benchmark (Table 19).
# [6] = Particle characteristics of LNPs containing EGFP mRNA and novel ionizable lipids; format: physicochemical; conditions: EGFP mRNA LNP 1.6:54.6:32.8:10.9
# Description: The lipid solution contains 4 components: a PEG-conjugated lipid, an ionizable lipid, cholesterol, and a phospholipid (e.g., DSPC). Lipid stocks were prepared using the lipid identities and molar ratios as described, to achieve a total concentration of ˜7 mg/mL in 100% ethanol. […] Equal volumes of the lipid and nucleic acid solutions were blended at a flow rate of 400 mL/min through a T-connector, and diluted with ˜4 volumes of PBS, pH 7.4. Formulations were placed in Slide-A-Lyzer dialysis units (MWCO 10,000) and dialyzed overnight against 10 mM Tris, 500 mM NaCl, pH 8 buffer. Following dialysis, the formulations were concentrated to ˜0.6 mg/mL using VivaSpin concentrator units (MWCO 100,000) and dialyzed overnight against 5 mM Tris, 10% sucrose, pH 8 buffer. Formulations were filtered through a 0.2 μm syringe filter (PES membrane). Nucleic acid concentration was determined by the RiboGreen assay. Particle size and polydispersity were determined using a Malvern Nano Series Zetasizer.
# LNP formulations containing novel ionizable lipids all produced stable particles with high encapsulation efficiency (Tables 20-23).
# [7] = Parent ionizable lipid remaining in liver at 24 h after EGFP mRNA LNP (LC-MS); format: in vivo; conditions: 24 h after IV 0.5 mg/kg EGFP mRNA LNP, female BALB/c mice (n = 4)
# Description: as §2
# At 24 h post-dose, some treatment groups reported lower levels of novel ionizable lipid in mouse liver compared to the benchmark (Tables 28-31).
# [8] = system: EGFP expression in the liver; test: EGFP expression in liver after intravenous EGFP mRNA LNP (ELISA); conditions: 0.5 mg/kg IV, 24 h post-IV administration, BALB/c mice (n = 4)
# [9] = Table 18, female BALB/c mice (n = 4)
structure (smiles),measurement,setting,value
"CCCCCCCCCCN(C(=O)CCCN(C)C)C(CCCCCCCCC)CCCCCCC(F)(F)C(=O)OCCC(CCCCCC)CCCCCC (centres unmarked) [Compound 16, 3-hexylnonyl 9-(N-decyl-4-(dimethylamino)butanamido)-2,2-difluorooctadecanoate]",Final Product % EE,[1],95%
same,Final Product PDI,[1],0.10
same,Final Product Z-avg,[1],76 nm
same,Luc Activity,[2]; Table 13,4.39E+07 pg/g liver
same,Human OTC expression,[3]; 0.3 mg/kg IV,1155 ng hOTC/mg protein in liver
same,Human OTC expression,[3]; 1 mg/kg IV,4127 ng hOTC/mg protein in liver
same,Human OTC expression,[3]; 3 mg/kg IV,10316 ng hOTC/mg protein in liver
same,"Parent ionizable lipid remaining in liver, Average","[4]; Table 17, female mice (n = 4)",6.32 nmol/g liver
same,"Parent ionizable lipid remaining in liver, Average",[4]; [9],17.06 nmol/g liver
same,"Parent ionizable lipid remaining in liver, Average",[5]; 0.25 h post-dose,11.11 nmol/g liver
same,"Parent ionizable lipid remaining in liver, Average",[5]; 1 h post-dose,15.47 nmol/g liver
same,"Parent ionizable lipid remaining in liver, Average",[5]; 3 h post-dose,10.91 nmol/g liver
same,"Parent ionizable lipid remaining in liver, Average",[5]; 6 h post-dose,4.71 nmol/g liver
same,"Parent ionizable lipid remaining in liver, Average",[5]; 24 h post-dose,1.33 nmol/g liver
same,"Parent ionizable lipid remaining in liver, Average",[5]; 168 h post-dose,0.04 nmol/g liver
CCCCCCCCCCC(CCCCCCC(=O)OCC(CCCCCC)CCCCCCCC)N(CCCCCCC(F)(F)C(=O)OCC(CCCCCC)CCCCCCCC)C(=O)CCCN(C)C (centres unmarked) [Compound 33],Human OTC expression,[3]; 0.3 mg/kg IV,660 ng hOTC/mg protein in liver
same,Human OTC expression,[3]; 1 mg/kg IV,2954 ng hOTC/mg protein in liver
same,Human OTC expression,[3]; 3 mg/kg IV,11080 ng hOTC/mg protein in liver
same,"Parent ionizable lipid remaining in liver, Average",[5]; 0.25 h post-dose,33.97 nmol/g liver
same,"Parent ionizable lipid remaining in liver, Average",[5]; 1 h post-dose,98.57 nmol/g liver
same,"Parent ionizable lipid remaining in liver, Average",[5]; 3 h post-dose,76.20 nmol/g liver
same,"Parent ionizable lipid remaining in liver, Average",[5]; 6 h post-dose,86.57 nmol/g liver
same,"Parent ionizable lipid remaining in liver, Average",[5]; 24 h post-dose,58.68 nmol/g liver
same,"Parent ionizable lipid remaining in liver, Average",[5]; 168 h post-dose,6.22 nmol/g liver
"CCCCCCCCCCON(C(=O)CCCN(C)C)C(CCCCCCCCCC)CCCCCCC(=O)OCCC(CCCCC)CCCCC (centres unmarked) [Compound 43, 3-pentyloctyl 8-[N-(decyloxy)-4-(dimethylamino)butanamido]octadecanoate]",Final Product % EE,[1],99%
same,Final Product PDI,[1],0.05
same,Final Product Z-avg,[1],73 nm
same,Luc Activity,[2]; Table 13,1.04E+08 pg/g liver
same,Human OTC expression,[3]; 0.3 mg/kg IV,1247 ng hOTC/mg protein in liver
same,Human OTC expression,[3]; 1 mg/kg IV,5713 ng hOTC/mg protein in liver
same,Human OTC expression,[3]; 3 mg/kg IV,12887 ng hOTC/mg protein in liver
same,"Parent ionizable lipid remaining in liver, Average","[4]; Table 17, female mice (n = 4)",25.97 nmol/g liver
same,"Parent ionizable lipid remaining in liver, Average",[4]; [9],23.83 nmol/g liver
same,"Parent ionizable lipid remaining in liver, Average",[5]; 0.25 h post-dose,22.97 nmol/g liver
same,"Parent ionizable lipid remaining in liver, Average",[5]; 1 h post-dose,38.91 nmol/g liver
same,"Parent ionizable lipid remaining in liver, Average",[5]; 3 h post-dose,28.99 nmol/g liver
same,"Parent ionizable lipid remaining in liver, Average",[5]; 6 h post-dose,24.19 nmol/g liver
same,"Parent ionizable lipid remaining in liver, Average",[5]; 24 h post-dose,13.50 nmol/g liver
same,"Parent ionizable lipid remaining in liver, Average",[5]; 168 h post-dose,0.19 nmol/g liver
CCCCCCCCCCC(CCCCCCC(=O)OCCC(CCCCC)CCCCC)N(CCCCCCCC(=O)OCCC(CCCCC)CCCCC)C(=O)CCCN(C)C (centres unmarked) [Compound 67],Luc Activity,[2]; Table 12,1.31E+08 pg/g liver
same,"Parent ionizable lipid remaining in liver, Average",[4]; [9],31.32 nmol/g liver
same,"Parent ionizable lipid remaining in liver, Average",[5]; 0.25 h post-dose,12.37 nmol/g liver
same,"Parent ionizable lipid remaining in liver, Average",[5]; 1 h post-dose,21.11 nmol/g liver
same,"Parent ionizable lipid remaining in liver, Average",[5]; 3 h post-dose,16.12 nmol/g liver
same,"Parent ionizable lipid remaining in liver, Average",[5]; 6 h post-dose,10.82 nmol/g liver
same,"Parent ionizable lipid remaining in liver, Average",[5]; 24 h post-dose,11.31 nmol/g liver
same,"Parent ionizable lipid remaining in liver, Average",[5]; 168 h post-dose,0.72 nmol/g liver
"CCCCCCCCCCC(CCCCCCC(=O)OC(CCCCCCCC)CCCCCCCC)N(CCCCCCC(F)(F)C(=O)OC(CCCCCCCC)CCCCCCCC)C(=O)CCCN(C)C (centres unmarked) [Compound 118, Heptadecan-9-yl 8-(N-(7,7-difluoro-8-(heptadecan-9-yloxy)-8-oxooctyl)-4-(dimethylamino)butanamido)octadecanoate]",Final Product % EE,[6]; Table 22,98%
same,Final Product PDI,[6]; Table 22,0.06
same,Final Product Z-avg,[6]; Table 22,83 nm
same,"Parent ionizable lipid remaining in liver, Average",[7]; Table 30,62.81 nmol/g liver
same,EGFP,[8]; Table 26,1.86E+07 pg/g liver
"CCCCCCCCCCC(CCCCCCCC(=O)OCC(CCCCCC)CCCCCCCC)N(CCCCCCCCCC)C(=O)CCN(C)C (centres unmarked) [Compound 119, 2-Hexyldecyl 9-(N-decyl-3-(dimethylamino)propanamido)nonadecanoate]",Final Product % EE,[6]; Table 22,97%
same,Final Product PDI,[6]; Table 22,0.09
same,Final Product Z-avg,[6]; Table 22,73 nm
same,"Parent ionizable lipid remaining in liver, Average",[7]; Table 30,25.25 nmol/g liver
same,EGFP,[8]; Table 26,1.60E+07 pg/g liver
"CCCCCCCCCCN(C(=O)CCCN(C)C)C(CCCCCCCCC)CCCCC(F)C(=O)OCC(CCCCCC)CCCCCCCC (centres unmarked) [Compound 120, 2-Hexyldecyl 7-(N-decyl-4-(dimethylamino)butanamido)-2-fluorohexadecanoate]",Final Product % EE,[6]; Table 23,99%
same,Final Product PDI,[6]; Table 23,0.15
same,Final Product Z-avg,[6]; Table 23,69 nm
same,"Parent ionizable lipid remaining in liver, Average",[7]; Table 31,4.8 nmol/g liver
same,EGFP,[8]; Table 27,1.90E+07 pg/g liver
"CCCCCCCCCCN(C(=O)CCCN(C)C)C(CCCCCCCCC)CCCCC(F)C(=O)OC(CCCCCC)CCCCCC (centres unmarked) [Compound 121, Tridecan-7-yl 7-(N-decyl-4-(dimethylamino)butanamido)-2-fluorohexadecanoate]",Final Product % EE,[6]; Table 23,99%
same,Final Product PDI,[6]; Table 23,0.10
same,Final Product Z-avg,[6]; Table 23,77 nm
same,"Parent ionizable lipid remaining in liver, Average",[7]; Table 31,2.1 nmol/g liver
same,EGFP,[8]; Table 27,3.81E+07 pg/g liver
"CCCCCCCCCCN(C(=O)CCCN(C)C)C(CCCCCCCCC)CCCCC(F)C(=O)OC(CCCCCCC)CCCCCCC (centres unmarked) [Compound 122, Pentadecan-8-yl 7-(N-decyl-4-(dimethylamino)butanamido)-2-fluorohexadecanoate]",Final Product % EE,[6]; Table 23,100%
same,Final Product PDI,[6]; Table 23,0.13
same,Final Product Z-avg,[6]; Table 23,70 nm
same,"Parent ionizable lipid remaining in liver, Average",[7]; Table 31,6.3 nmol/g liver
same,EGFP,[8]; Table 27,2.35E+07 pg/g liver
"CCCCCCCCCCN(C(=O)CCCN(C)C)C(CCCCCCCCC)CCCCC(F)C(=O)OC(CCCCCCCC)CCCCCCCC (centres unmarked) [Compound 123, Heptadecan-9-yl 7-(N-decyl-4-(dimethylamino)butanamido)-2-fluorohexadecanoate]",Final Product % EE,[6]; Table 23,99%
same,Final Product PDI,[6]; Table 23,0.15
same,Final Product Z-avg,[6]; Table 23,73 nm
same,"Parent ionizable lipid remaining in liver, Average",[7]; Table 31,10.5 nmol/g liver
same,EGFP,[8]; Table 27,3.94E+07 pg/g liver
